Like-named read-outs stand apart in the source and are kept apart here.
Columns and labels:
E. coli [BL21(DE3)] = experiment: Minimal Bactericidal Concentration (MBC) measurements, E. coli; assay type: cell-based
Protocol: (§1) Bacterial Cell Culturing. Expression cells from frozen stock were streaked onto a kanamycin-selected lysogeny broth (LBKan) agar plate using a sterile loop and incubated overnight at 37° C. One colony was then taken from the plate the next day to inoculate 50 mL of sterile LBKan broth and shaken at 37° C. until reaching a growth concentration of 4×10^8 CFU/mL. This protocol was used for bacterial cell culture preparation in all of the experiments described below.
Minimal Bactericidal Concentration (MBC) Measurements. E. coli cells were cultured as described above and aliquoted into sterile tubes. 1%, 10%, and 100% (w/v) solutions of IL in sterile water (correcting for water percentage of the IL) were prepared and sonicated for 15 minutes at 40° C. before addition to the liquid culture. IL solutions were then added to E. coli at varying percentages (v/v), allowing calculation of the actual concentration of IL that was added to the culture. 100 μL of each solution was then spread onto an LBKan agar plate and incubated overnight at 37° C. […] Each IL solution was tested in triplicate.

MRSA [BAA-1708] = experiment: Growth inhibition / MBC of Methicillin Resistant Staphylococcus aureus (MRSA); assay type: cell-based
Protocol: as §1
Growth Inhibition of Methicillin Resistant Staphylococcus Aureus (MRSA). 10% (w/v) solutions of IL in sterile water were prepared similarly to the E. coli MBC experiments. ILs with anion chain lengths of 8-12 carbons at 1:2 mole ratio of choline to anion were added to MRSA at varying concentrations to determine the lowest concentration in which growth was inhibited. Concentrations were then compared to values obtained for E. coli for each solution.

[1] = Table 1, lowest IL concentration with no growth on LBKan agar plate, triplicate

CC=CC(=O)[O-].C[N+](C)(C)CCO [CA2BE 1:1, Choline 2-Butenoate 1:1]
E. coli MBC (E. coli [BL21(DE3)]; [1]): 1330.40 mM

CCCCCCCC=CC(=O)[O-].C[N+](C)(C)CCO [CA2DE 1:1, Choline 2-Decenoate 1:1]
E. coli MBC (E. coli [BL21(DE3)]; [1]): 3.67 mM

CCCC=CC(=O)[O-].C[N+](C)(C)CCO [CA2HE 1:1, Choline 2-Hexenoate 1:1]
E. coli MBC (E. coli [BL21(DE3)]; [1]): 507.63 mM

CCCCC=CC(=O)[O-].C[N+](C)(C)CCO [CA2HPE 1:1, Choline 2-Heptenoate 1:1]
E. coli MBC (E. coli [BL21(DE3)]; [1]): 346.93 mM

CCCCCC/C=C/C(=O)O [CA2NE 1:1, Choline 2-Nonenoate 1:1]
E. coli MBC (E. coli [BL21(DE3)]; [1]): 56.40 mM

CCCCCC/C=C/C(=O)O [CA2NE 1:2, Choline 2-Nonenoate 1:2]
E. coli MBC (E. coli [BL21(DE3)]; [1]): 1.22 mM

CCCCC/C=C/C(=O)O [CA2OE 1:1, Choline 2-Octenoate 1:1]
E. coli MBC (E. coli [BL21(DE3)]; [1]): 84.70 mM

CCC=CC(=O)[O-].C[N+](C)(C)CCO [CA2PE 1:1, Choline 2-Pentenoate 1:1]
E. coli MBC (E. coli [BL21(DE3)]; [1]): 1151.30 mM

CCCCCCCC/C=C/C(=O)O [CA2UE 1:1, Choline 2-Undecenoate 1:1]
E. coli MBC (E. coli [BL21(DE3)]; [1]): 15.08 mM

C=CCC(=O)[O-].C[N+](C)(C)CCO [CA3BE 1:1, Choline 3-Butenoate 1:1]
E. coli MBC (E. coli [BL21(DE3)]; [1]): 1350.93 mM

CCCCCCC=CCC(=O)[O-].C[N+](C)(C)CCO [CA3DE 1:1, Choline 3-Decenoate 1:1]
E. coli MBC (E. coli [BL21(DE3)]; [1]): 3.10 mM

CC/C=C/CC(=O)O [CA3HE 1:1, Choline 3-Hexenoate 1:1]
E. coli MBC (E. coli [BL21(DE3)]; [1]): 511.17 mM

CCCC=CCC(=O)[O-].C[N+](C)(C)CCO [CA3HPE 1:1, Choline 3-Heptenoate 1:1]
E. coli MBC (E. coli [BL21(DE3)]; [1]): 347.63 mM

C[N+](C)(C)CCO.O=C([O-])CCS [CA3MP 1:1, Choline 3-Mercaptopropionate 1:1]
E. coli MBC (E. coli [BL21(DE3)]; [1]): 1378.42 mM

CCCCC/C=C/CC(=O)O [CA3NE 1:1, Choline 3-Nonenoate 1:1]
E. coli MBC (E. coli [BL21(DE3)]; [1]): 57.50 mM

CCCC/C=C/CC(=O)O [CA3OE 1:1, Choline 3-Octenoate 1:1]
E. coli MBC (E. coli [BL21(DE3)]; [1]): 92.00 mM

CC=CCC(=O)[O-].C[N+](C)(C)CCO [CA3PE 1:1, Choline 3-Pentenoate 1:1]
E. coli MBC (E. coli [BL21(DE3)]; [1]): 1152.23 mM

CC(=O)OCC(=O)O [CAAA 1:1, Choline Acetoxyacetate 1:1]
E. coli MBC (E. coli [BL21(DE3)]; [1]): 73.40 mM

CCCC(=O)[O-].C[N+](C)(C)CCO [CABA 1:1, Choline Butanoate 1:1]
E. coli MBC (E. coli [BL21(DE3)]; [1]): 1234.35 mM

CCCCCCCCCCCC(=O)[O-].C[N+](C)(C)CCO [CADDA 1:1, Choline Dodecanoate 1:1]
E. coli MBC / killing efficacy concentration (E. coli [BL21(DE3)]): 17.1 mM | E. coli MBC (E. coli [BL21(DE3)]; [1]): 17.10 mM

CCOCC(=O)[O-].C[N+](C)(C)CCO [CAEA 1:1, Choline Ethoxyacetate 1:1]
E. coli MBC (E. coli [BL21(DE3)]; [1]): 1746.07 mM

C[N+](C)(C)CCO.O=C([O-])/C=C/C(=O)O [CAFU 1:1, Choline Fumarate 1:1]
E. coli MBC (E. coli [BL21(DE3)]; [1]): 27.17 mM

CC/C=C(\C)C(=O)O [CAGAS 1:1, Choline trans-2-Methyl-2-Pentenoate 1:1]
E. coli MBC (E. coli [BL21(DE3)]; [1]): 530.73 mM

CC/C=C(\C)C(=O)O [CAGAS 1:2, Choline trans-2-Methyl-2-Pentenoate 1:2]
E. coli MBC (E. coli [BL21(DE3)]; [1]): 44.60 mM

CCCCCC(=O)[O-].C[N+](C)(C)CCO [CAHA 1:1, Choline Hexanoate 1:1]
E. coli MBC (E. coli [BL21(DE3)]; [1]): 483.53 mM

CCCCCCC(=O)[O-].C[N+](C)(C)CCO [CAHPA 1:1, Choline Heptanoate 1:1]
E. coli MBC (E. coli [BL21(DE3)]; [1]): 101.80 mM

C[N+](C)(C)CCO.O=C([O-])CC(=O)O [CAMA 1:1, Choline Malonate 1:1]
E. coli MBC (E. coli [BL21(DE3)]; [1]): 1368.53 mM

C[N+](C)(C)CCO.O=C([O-])C=CC(=O)O [CAME 1:1, Choline Maleate 1:1]
E. coli MBC (E. coli [BL21(DE3)]; [1]): 38.37 mM

C[N+](C)(C)CCO.O=C(O)CC(O)C(=O)[O-] (centres unmarked) [CAMI 1:1, Choline Malate 1:1]
E. coli MBC (E. coli [BL21(DE3)]; [1]): 1126.13 mM

CCCCCCCCC(=O)[O-].C[N+](C)(C)CCO [CANA 1:1, Choline Nonanoate 1:1]
E. coli MBC (E. coli [BL21(DE3)]; [1]): 13.63 mM

CCCCCCCC(=O)[O-].C[N+](C)(C)CCO [CAOA 1:1, Choline Octanoate 1:1]
E. coli MBC (E. coli [BL21(DE3)]; [1]): 76.63 mM

CCCCC(=O)[O-].C[N+](C)(C)CCO [CAPA 1:1, Choline Pentanoate 1:1]
E. coli MBC (E. coli [BL21(DE3)]; [1]): 792.10 mM

CCCCCCCCCCC(=O)[O-].C[N+](C)(C)CCO [CAUA 1:1, Choline Undecanoate 1:1]
E. coli MBC (E. coli [BL21(DE3)]; [1]): 15.50 mM

Choline 2-Butenoate 1:2 [CA2BE 1:2]
E. coli MBC (E. coli [BL21(DE3)]; [1]): 158.97 mM

Choline 2-Decenoate 1:2 [CA2DE 1:2]
E. coli MBC (E. coli [BL21(DE3)]; [1]): 0.77 mM

Choline 2-Heptenoate 1:2 [CA2HPE 1:2]
E. coli MBC (E. coli [BL21(DE3)]; [1]): 21.33 mM

Choline 2-Hexenoate 1:2 [CA2HE 1:2]
E. coli MBC (E. coli [BL21(DE3)]; [1]): 54.37 mM

Choline 2-Octenoate 1:2 [CA2OE 1:2]
E. coli MBC (E. coli [BL21(DE3)]; [1]): 5.18 mM

Choline 2-Pentenoate 1:2 [CA2PE 1:2]
E. coli MBC (E. coli [BL21(DE3)]; [1]): 120.10 mM

Choline 2-Undecenoate 1:2 [CA2UE 1:2]
E. coli MBC (E. coli [BL21(DE3)]; [1]): 1.78 mM | E. coli MBC (E. coli [BL21(DE3)]; Table 2, comparison with MRSA): 1.78 mM | MRSA MBC (MRSA [BAA-1708]; Table 2, 1:2 mole ratio ILs): 1.06 mM

Choline 3-Butenoate 1:2 [CA3BE 1:2]
E. coli MBC (E. coli [BL21(DE3)]; [1]): 153.33 mM

Choline 3-Decenoate 1:2 [CA3DE 1:2]
E. coli MBC (E. coli [BL21(DE3)]; [1]): 0.57 mM | E. coli MBC (E. coli [BL21(DE3)]; Table 2, comparison with MRSA): 0.57 mM | MRSA MBC (MRSA [BAA-1708]; Table 2, 1:2 mole ratio ILs): 1.13 mM

Choline 3-Heptenoate 1:2 [CA3HPE 1:2]
E. coli MBC (E. coli [BL21(DE3)]; [1]): 18.93 mM

Choline 3-Hexenoate 1:2 [CA3HE 1:2]
E. coli MBC (E. coli [BL21(DE3)]; [1]): 52.00 mM

Choline 3-Mercaptopropionate 1:2 [CA3MP 1:2]
E. coli MBC (E. coli [BL21(DE3)]; [1]): 101.07 mM

Choline 3-Octenoate 1:2 [CA3OE 1:2]
E. coli MBC (E. coli [BL21(DE3)]; [1]): 2.16 mM

Choline 3-Pentenoate 1:2 [CA3PE 1:2]
E. coli MBC (E. coli [BL21(DE3)]; [1]): 134.83 mM

Choline Acetoxyacetate 1:2 [CAAA 1:2]
E. coli MBC (E. coli [BL21(DE3)]; [1]): 12.41 mM

Choline Butanoate 1:2 [CABA 1:2]
E. coli MBC (E. coli [BL21(DE3)]; [1]): 152.70 mM

Choline Dodecanoate 1:2 [CADDA 1:2]
E. coli MBC (E. coli [BL21(DE3)]; [1]): 8.34 mM | E. coli MBC (E. coli [BL21(DE3)]; Table 2, comparison with MRSA): 8.34 mM | MRSA MBC (MRSA [BAA-1708]): 0.99 mM | MRSA MBC (MRSA [BAA-1708]; Table 2, 1:2 mole ratio ILs): 0.99 mM

Choline Ethoxyacetate 1:2 [CAEA 1:2]
E. coli MBC (E. coli [BL21(DE3)]; [1]): 89.20 mM

Choline Fumarate 1:2 [CAFU 1:2]
E. coli MBC (E. coli [BL21(DE3)]; [1]): 10.05 mM

Choline Heptanoate 1:2 [CAHPA 1:2]
E. coli MBC (E. coli [BL21(DE3)]; [1]): 16.33 mM

Choline Hexanoate 1:2 [CAHA 1:2]
E. coli MBC (E. coli [BL21(DE3)]; [1]): 28.23 mM

Choline Malate 1:2 [CAMI 1:2]
E. coli MBC (E. coli [BL21(DE3)]; [1]): 91.80 mM

Choline Maleate 1:2 [CAME 1:2]
E. coli MBC (E. coli [BL21(DE3)]; [1]): 20.00 mM

Choline Malonate 1:2 [CAMA 1:2]
E. coli MBC (E. coli [BL21(DE3)]; [1]): 21.60 mM

Choline Nonanoate 1:2 [CANA 1:2]
E. coli MBC (E. coli [BL21(DE3)]; [1]): 1.01 mM

Choline Octanoate 1:2 [CAOA 1:2]
E. coli MBC (E. coli [BL21(DE3)]; [1]): 4.91 mM

Choline Pentanoate 1:2 [CAPA 1:2]
E. coli MBC (E. coli [BL21(DE3)]; [1]): 110.37 mM

Choline Undecanoate 1:2 [CAUA 1:2]
E. coli MBC (E. coli [BL21(DE3)]; [1]): 1.98 mM | E. coli MBC (E. coli [BL21(DE3)]; Table 2, comparison with MRSA): 1.98 mM | MRSA MBC (MRSA [BAA-1708]; Table 2, 1:2 mole ratio ILs): 2.10 mM
